Assay results reported in patent US5783599A, “Methods of treating cancer and viral infections with 5-iodo-6-amino-and 5-iodo-6-nitroso-1 2-benzopyrones” (priority 1996, dated 1998).
Values after ≈ are worked out from the molar mass of the structure shown. “Also recorded” adds a separate entry of the source. Read-outs that look alike come from different tables or passages of the source.

How the values were obtained:
[1] = Metabolic conversion in liver / intracellular oxidation and cell penetration
[2] = system: E-Ras cells; assay: DNA synthesis ([3H]deoxyadenosine incorporation) in E-Ras cells; type: cell-based; conditions: 72 h, N=5
From the text: (§1) In this study, the following cell lines were used. Cell line CG I, a non-tumorigenic hybrid of HeLa cells with normal human fibroblasts, and its is tumorigenic revertant counterpart, CG1 III, as described in Science, 215:252 (1982). These cells were obtained from UC Irvine. […] HEp-2 human epidermoid carcinoma cells were provided by Dr. L. Aurelian (University of Maryland). E-Ras cells were-obtained from University of Cincinnati and represent an endothelial cell line transfected with pSV2neo plasmid as described in Proc. Natl. Acad. Sci., 76:1373 (1979). This cell line contains several copies of the activated human Ha-ras oncogene.
(§2) Cells were seeded to 2 cm^2 wells of Falcon tissue culture plates at a density of 6000±650 cells per well. Inhibitors were added to the seeding suspensions from stock solutions of 100 mM 6-ABP in water or 50 mM 5-1-6-ABP in dimethylsulfoxide (DMSO). […] Growth media were Dulbeccos MEM (lines #1 and 2), and Dulbeccols Modified Eagle's Medium, containing 10% fetal bovine serum and penicillin (100 μg/ml) plus streptomycin (100 μg/ml). […] Cells were then lysed in 500 μl of 0.06M NaOH and the acid precipitable radioactivity was determined.

[3] = literature; cited from earlier work
[4] = system: malignant cell proliferation; assay: Malignant cell proliferation / cytostatic activity in cell cultures, overall; type: cell-based; conditions: for potency relative to 6-ABP: biological action spectrum
From the text: as §1
Cells were seeded to 2 cm^2 wells of Falcon tissue culture plates at a density of 6000±650 cells per well. Inhibitors were added to the seeding suspensions from stock solutions of 100 mM 6-ABP in water or 50 mM 5-1-6-ABP in dimethylsulfoxide (DMSO). […] Growth media were Dulbeccos MEM (lines #1 and 2), and Dulbeccols Modified Eagle's Medium, containing 10% fetal bovine serum and penicillin (100 μg/ml) plus streptomycin (100 μg/ml). After incubation for 72 hours at 37° C. in a 5% CO2 humidified atmosphere, incorporation of [^3 H] deoxyadenosine (ICN, 18 Ci/mmol) into DNA was tested as follows: [^3 H] deoxyadenosine (450,000 dpm in 40 μl) of medium was added per well (each containing 600 μl of medium) and incubation at 37° C. was continued for 1 hour, followed by removal of the medium and rinsing of the wells 3 times with phosphate-buffered saline. Cells were then lysed in 500 μl of 0.06M NaOH and the acid precipitable radioactivity was determined.

[5] = system: CG1 I cells; assay: DNA synthesis ([3H]deoxyadenosine incorporation) in CG1 I cells; type: cell-based; conditions: Homo sapiens, 72 h, N=5
From the text: as §1, §2

[6] = system: Rat-1 cells; assay: DNA synthesis ([3H]deoxyadenosine incorporation) in Rat-1 cells; type: cell-based; conditions: 72 h, N=5
From the text: as §1, §2

[7] = system: 14C cells; assay: DNA synthesis ([3H]deoxyadenosine incorporation) in 14C cells; type: cell-based; conditions: Rattus norvegicus, 72 h, N=5, read-out: % Inhibition of DNA synthesis
From the text: as §1, §2

[8] = system: GC1 III cells; assay: DNA synthesis ([3H]deoxyadenosine incorporation) in CG1 III cells; type: cell-based; conditions: Homo sapiens, 72 h, N=5
From the text: as §1, §2

[9] = system: HEp-2 cells; assay: DNA synthesis ([3H]deoxyadenosine incorporation) in HEp-2 cells; type: cell-based; conditions: Homo sapiens, 72 h, N=5, read-out: % Inhibition of DNA synthesis
From the text: as §1, §2

[10] = system: AA-2 or MT-2 cells; assay: Cell count and viability of AA-2 and MT-2 cells; type: cell-based, human; conditions: for effect on cell proliferation: 0.1 mM 5-I-6-ABP
Procedure: The effects of 5-I-6-ABP treatment of AA-2 and MT-2 cells was directly analyzed by cell count and viability tests including cloning efficiency and trypan blue uptake. The AA2 or MT-2 cell culture having initial cell count per well 0.5×10^5 was submitted to treatment with 3 mM of 6-ABP and or with 0.1 mM of 5-I-6-ABP and compared to untreated cell culture. The cells were counted 4 days after the treatment with 5-I-6-ABP and 6-ABP.

[11] = system: human lymphoblasts; assay: Lymphoblast viability; type: cell-based
Procedure: The viability of lymphoblasts is measured by incubating the cells exposed to IL-2, HIV and to 6-ABP with H3-thymidine for 6 hours on the sixth day of culture and determining the amount of cpm incorporated per 100,000 cells placed in culture.

[12] = system: HIV; assay: Inhibition of syncytia formation by HIV in MT-2 cells; type: cell-based
[13] = biological target: T1, ADPRT (Bos taurus, UniProt P18493); assay: Inhibition of ADPRT / binding to ADPRT (I50, Ki); type: biochemical
T1 sequence (P18493 whole entry): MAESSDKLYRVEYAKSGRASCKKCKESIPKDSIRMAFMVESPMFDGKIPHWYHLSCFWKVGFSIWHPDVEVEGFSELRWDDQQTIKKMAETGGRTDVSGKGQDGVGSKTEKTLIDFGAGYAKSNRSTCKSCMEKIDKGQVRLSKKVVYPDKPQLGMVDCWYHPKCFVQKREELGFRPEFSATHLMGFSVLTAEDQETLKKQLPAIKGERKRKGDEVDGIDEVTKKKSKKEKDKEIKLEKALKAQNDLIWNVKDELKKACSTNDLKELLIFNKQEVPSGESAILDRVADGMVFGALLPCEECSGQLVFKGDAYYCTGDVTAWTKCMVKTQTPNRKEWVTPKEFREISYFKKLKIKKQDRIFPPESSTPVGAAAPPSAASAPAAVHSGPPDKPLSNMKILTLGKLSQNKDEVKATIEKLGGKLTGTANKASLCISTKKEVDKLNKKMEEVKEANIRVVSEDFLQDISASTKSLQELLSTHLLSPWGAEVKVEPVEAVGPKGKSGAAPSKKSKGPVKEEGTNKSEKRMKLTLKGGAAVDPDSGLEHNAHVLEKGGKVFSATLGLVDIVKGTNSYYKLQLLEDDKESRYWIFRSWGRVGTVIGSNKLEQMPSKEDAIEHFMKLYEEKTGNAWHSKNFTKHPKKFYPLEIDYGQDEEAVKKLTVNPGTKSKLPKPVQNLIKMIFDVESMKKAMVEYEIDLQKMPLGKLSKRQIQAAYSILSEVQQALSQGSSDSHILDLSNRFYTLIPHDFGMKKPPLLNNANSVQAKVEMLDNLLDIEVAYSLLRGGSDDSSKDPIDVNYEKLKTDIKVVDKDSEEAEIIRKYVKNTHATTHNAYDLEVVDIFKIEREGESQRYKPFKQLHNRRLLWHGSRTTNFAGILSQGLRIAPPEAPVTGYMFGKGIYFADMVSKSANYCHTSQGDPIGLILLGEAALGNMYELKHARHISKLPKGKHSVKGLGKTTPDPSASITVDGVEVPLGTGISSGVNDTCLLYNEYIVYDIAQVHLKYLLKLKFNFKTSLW
From the text: Their biological action spectrum is nearly the same as that of 6-ABP, except that their potency is about 10-50 times greater. Such potency is particularly well documented in case of 5-I-6-ABP against malignant cell proliferation in cell cultures. […] This effectivity is 10-20 times higher than 6-ABP.
The 6-amino group of 5-I-6-ABP is rapidly oxidized intracellularly to 5-I-6-NOBP which, by binding to the Zn^2+ -finger domain of ADPRT, destabilizes the tightly chelated Zn^2+ by the oxidation of the thiol groups in the Zn^2+ finger polypeptide, thus ejecting Zn^2+. In this way, 5-I-6-ABP effectively inactivates the ADPR-forming activity of this protein and converts it to a DNA binding protein that reacts with "internal domains" of certain double stranded DNA (Biochemistry, 28:5670 (1989); Biochem. Biophys. Res. Commun., 167:842 (1990)). These DNA domains include abnormally replicating DNA structures in tumorigenic or proliferative cells and in viral DNAs, probably at the integration sites.

[14] = biological target: T1, ADPRT; conditions: literature; cited from earlier work
[15] = system: HIV; assay: HIV replication by p24 formation (ELISA) in cell culture; type: cell-based
[16] = Stability in solution; type: physicochemical
From the text: 5-I-6-ABP, is a reasonably soluble molecule. It can form approximately 0. […] Such solution would be reasonably stable for use as an intravenous infusion formulation. The parenteral route of administration seems to be the most likely effective mode of administration against cancer or HIV infections at any stage of the disease. […] 5-I-6-ABP is most probably also effective for treatment of AIDS related Kaposi's sarcoma of inner organs. Properly formulated, it will also effect skin disorders. The color of the compound in the solid state depends on particle size. Large crystals are a very deep brown, small crystals, a medium brown, and when pulverized, the material in all cases is orange-colored.

[17] = Toxicity after intraperitoneal administration; type: in vivo, rat
Procedure: Toxicological tests administering 5-I-6-ABP to mice were performed under the following conditions.
[…] […] […] In in vitro experiments, it was shown that at the concentration 100 mg/kg corresponding to 0.35 mM, the antiviral effect is maximal.

[18] = system: virus; assay: Antiviral effect in in vitro experiments at 0.35 mM; type: cell-based; conditions: 100 mg/kg corresponding to 0.35 mM
[19] = Solubility; type: physicochemical; conditions: 25° C.
From the text: The color of the compound in the solid state depends on particle size. Large crystals are a very deep brown, small crystals, a medium brown, and when pulverized, the material in all cases is orange-colored.

[20] = General toxicity
[21] = system: CMV; assay: CMV replication in infected cell culture; type: cell-based
[22] = system: HIV; assay: Cytopathogenic effect of HIV on MT-2 cells; type: cell-based
[23] = system: HIV; assay: Anti-HIV activity, overall comparison with 6-ABP; type: cell-based
[24] = system: HIV; assay: HIV proliferation in human lymphoblasts; type: cell-based
From the text: The HIV isolates used in these experiments are isolated from the blood of infected patients. After isolation, HIV infection is established in CEM cells, and these infected cells are used to produce a stock of HIV virus that is titered to measure the concentration of tissue culture infective doses (TCID).
The cells are placed in culture in medium containing IL-2, but in the absence of additional 5-I-6-ABP, and monitored at 6 days and 12 days for the production of HIV-p24 core antigen, or for measurements of particulate reverse transcriptase.
HIV p24 antigen is measured by ELISA, with a cutoff of 5 pgm/ml. Particulate reverse transcriptase is measured by centrifuging down free virus from tissue culture fluids, lysing HIV in a buffer containing detergent, magnesium, H3-labelled dTTP and poly rA.oligo dT primer, incubating for 1 hour, and measuring precipitable radioactivity, and is expressed as cpm per volume of HIV-containing medium.

[25] = system: HSV; assay: HSV replication in infected cell culture; type: cell-based
Procedure: Herpes simplex virus (HSV) type 1 and 2 (F and G strains, respectively) were grown in HEp-2 cells and titered by plaque assay under liquid overlay as described in Proc. Natl. Acad. Sci., 83:2787 (1986). Virus titers for CMV are expressed as the highest dilution that causes 50% cytopathic effect (TCID50). Virus titers for HSV-1 and HSV-2 are expressed as […] per ml. HIV titers are expressed as syncytial forming units (SFU per ml), assayed on MT2 cells. Vero, HEp-2 or MRC-5 cells are exposed to various concentrations from 0.1 to 10 mM of 5-I-6-ABP in various time intervals before infecting them with HSV-1 or HSV-2 (5-10 PFU/cell). Virus titers are determined 24 hours later.

[26] = system: other enzymes; assay: Specificity towards other enzymes
[27] = system: HIV; assay: Cytopathogenic effect of HIV on AA-2 cells; type: cell-based
[28] = Passage of blood brain barrier; conditions: in vivo

## O=c1ccc2c(I)c([N+](=O)[O-])ccc2o1 [5-I-6-nitro-NBP, 5-iodo-6-nitro-1,2-benzopyrone]
[1]; nitro oxidation product formed in liver
  biochemical activity: inactive

## Nc1ccc2oc(=O)ccc2c1 [6-ABP, 6-amino-1,2-benzopyrone, reference compound]
[2]; 6-ABP 0.5 mM
  inhibition at 500 µM: -69.5%
[3]
  sedative, hypnotic, hypothermal, antipyretic, hypotensive, adrenolytic action: No significant action
[4]; 500 μM 6-ABP vs 50 μM 5-I-6-ABP, vs 500 μM as printed
  effectivity of 500 μM 6-ABP compared with 5-I-6-ABP: the same effectivity
[5]; 6-ABP 0.5 mM
  inhibition at 500 µM: -19.8%
[6]; 6-ABP 0.5 mM
  inhibition at 500 µM: -30.5%
[7]; 6-ABP 0.5 mM
  percent change in DNA synthesis versus control at 500 µM: -53.3%
[8]; 6-ABP 0.5 mM
  inhibition at 500 µM: -37.5%
[9]; 6-ABP 0.5 mM
  percent change in DNA synthesis vs control at 500 µM: -47.6%
[10]
  cytotoxicity: does not involve cytotoxicity
[10]; 3 mM 6-ABP, 4 days
  effect on cell proliferation: inhibitory effect on cell proliferation
  toxic effects in viability test: no evidence of toxic effects
[11]
  cell damage or death: without detectable cell damage or death
[12]
  inhibition of syncytia formation: complete
[13]
  IC50: 125 µM
  Ki: 47 µM
[14]
  ADPRT ligand: specifically bind to ADPRT

## O=c1ccc2ccccc2o1 [1,2-benzopyrone (coumarin), 1,2-benzopyrone]
[14]
  ADPRT ligand: inhibitory ligand

## Nc1ccc2oc(=O)ccc2c1I [5-I-6-ABP, 5-iodo-6-amino-1,2-benzopyrone]
[2]; 5-I-6-ABP 0.05 mM
  inhibition at 50 µM: -81.8%
[15]
  p24 protein formation, effect relative to 3 mM 6-ABP: nearly as effective
  suppressing effect on p24 generation: almost equivalent suppressing effect on p24 generation
[16]; 25° C.
  stability in water, ethanol and DMSO: stable in all of these solvents
[16]; about 0.4 mM in water, pH 7.2-7.9, room temperature
  stability of aqueous solution: stable for months at room temperature
[16]; boiling water
  stability with respect to boiling water: stable with respect to boiling water
[16]; water, kept in the dark, months at room temperature, read-out: decomposition in aqueous solution
  degraded: < 0.1%
[1]; most mammalian cells, pH 7.2-7.4
  cell penetration: to a limited degree
[1]; to 5-I-6-NOBP
  intracellular oxidation at 6-amino position: rapid oxidation
[1]; to 5-I-6-nitroBP, per os
  metabolic conversion in the liver: rapid conversion in the liver
[4]
  cellular toxicity of cytostatic effect: do not involve cellular toxicity
[4]; 6 cell lines, Table 1
  replication of tumorigenic cell types: profoundly inhibited
[4]; vs 6-ABP
  potency relative to 6-ABP: 10-50 times
  antitumor activity relative to 6-ABP: at least 10 times
[5]; 5-I-6-ABP 0.05 mM
  inhibition at 50 µM: -7.6%
[17]; chronic administration, 100 and 500 mg/kg, several weeks
  toxic effects, chronic: did not show any toxic effects
[17]; rats, i.p., 100 and 59 mg/kg in DMSO once a day, four days
  toxic effects, subacute: no apparent toxic effects
[18]
  antiviral effect: maximal
[19]; water, read-out: solubility in water (saturated)
  solubility: 0.37 mM (≈ 106 µg/mL)
[19]; organic solvent or mixture, DMSO, read-out: solubility in DMSO (saturated)
  solubility: 1900 mM (≈ 545000 µg/mL)
[19]; organic solvent or mixture, ethanol, read-out: solubility in ethanol (saturated)
  solubility: 4.7 mM (≈ 1350 µg/mL)
[20]
  toxicity: completely nontoxic; also recorded: absence of toxicity
[6]; 5-I-6-ABP 0.05 mM
  inhibition at 50 µM: -35.6%
[21]
  CMV inhibition: specific, potent and non-toxic inhibitor; also recorded: effectively inhibits CMV growth
[7]; 5-I-6-ABP 0.05 mM
  percent change in DNA synthesis versus control at 50 µM: -69.2%
[8]; 5-I-6-ABP 0.05 mM
  inhibition at 50 µM: -64.4%
[9]; 5-I-6-ABP 0.05 mM
  percent change in DNA synthesis vs control at 50 µM: -52.4%
[10]
  cytotoxicity: does not involve cytotoxicity
[10]; 3 mM 6-ABP, 4 days
  effect on cell proliferation: inhibitory effect on cell proliferation
[22]
  cytopathogenic effect of HIV, effectiveness relative to 6-ABP: nearly as effective
[23]
  anti-HIV activity: specific, potent and non-toxic inhibitor; also recorded: highly effective against HIV
  effectivity against HIV relative to 6-ABP: 10-20 times
  inhibition of HIV replication, reversibility: temporary, reversible
[24]
  inhibition of HIV, duration: temporary and reversible
[12]
  inhibition of syncytia formation: complete
  inhibition of syncytia formation relative to 3 mM 6-ABP: only slightly less inhibitory
[13]
  IC50: 19 µM
  Ki: 2 µM
  inhibition of / binding to ADPRT: potent inhibitor of ADPRT; also recorded: much tighter binding
[13]; vs non-iodinated 6-ABP
  times more potent than 6-ABP (on a concentration basis): about 10 times
[25]
  HSV inhibition: specific, potent and non-toxic inhibitor
[25]; Vero, HEp-2 or MRC-5 cells, 0.1 to 10 mM
  effect of cell type on inhibitory effect: not affected by cell type
[26]
  activation or inhibition of other enzymes: no other enzymes are activated or inhibited
[27]
  cytopathogenic effect of HIV, effectiveness relative to 6-ABP: nearly as effective
[28]
  blood brain barrier passage: appears to cross the blood brain barrier

## O=Nc1ccc2oc(=O)ccc2c1I [5-I-6-NOBP, 5-iodo-6-nitroso-1,2-benzopyrone]
[4]; vs 6-ABP
  potency relative to 6-ABP: 10-50 times
[13]
  inhibition of / binding to ADPRT: binds with high affinity to zinc-fingers of enzyme ADPRT; also recorded: potent inhibitor of ADPRT
